From US5523421A (Pacific Corporation, priority 1993, dated 1996)

Tests used:
[1] = DPPH (diphenylpicrylhydrazyl) radical-scavenging test; conditions: 100 μM DPPH in ethanol, 37° C., 30 minutes, 515 nm
Procedure: Harmful radicals-scavenging activity of the compounds of Examples 1 through 6 were compared with those of conventional anti-oxidants by using DPPH(diphenylpicrylhydrazyl) radical-scavenging test as follows:
DPPH was dissolved into ethanol to a concentration of 100 μM. A series of dilutions of compounds of Examples 1 through 6, vitamin C, vitamin E or hydroquinone were prepared.
Ethanol and water were used to dilute the test compounds. As a control, 1:1 mixture of ethanol and water was used. The series of dilutions of each test compound were mixed with 1,900 μl of DPPH solution and the dilution solvent was added to 2.0 ml. The resulting mixture was reacted in a 37° C. incubator for 30 minutes. The absorbance was measured at 515 nm. The radical-scavenging activities of the compounds of Examples 1 through 6 and conventional anti-oxidants were calculated by employing the following equation: [formula]
From the radical scavenging activity(%) by a series of dilutions of test compounds, IC50, i.e., a concentration of test compound which scavenge the radical, DPPH by 50% was calculated for each test compound.

[2] = system: human skin; experiment: human body patch test (skin safety); type: in vivo; conditions: for number of positive subject/the number of total subjects, 48 hours later / number of positive subject/the number of total subjects, 96 hours later: 0.2 wt % in cream, 20 μl finn chamber on brachium; for safety to human skin (in words): patch test conclusion
Procedure: In order to examine the safety of the compounds of Examples 1 through 6, the human body patch test was carried out as follows:
The brachium of thirty(30) healthy volunteers (15 females and 15 males) was thoroughly washed with 70% ethanol and applied with a finn chamber containing 20 μl of a conventional creamy preparation incorporating 0.2 wt % of one of the compound of Examples 1 to 6. The finn chamber was thoroughly bonded to the brachium using an adhesive tape. 48 hours later, the tape and chamber were removed, and the adherent site of the arm was wiped with a gauze to remove the remaining preparation and observed for redness(erythma), swelling, and papuol. 48 hours later, the site was examined again.
The results are shown in terms of the number of positive subject/the number of total subjects.

[3] = molecular target: tyrosinase; experiment: Tyrosinase-inhibiting activity; type: biochemical, mushroom; conditions: for IC50: mushroom tyrosinase, tyrosine substrate, pH 6.8, 37° C., 10 minutes, absorbance at 475 nm
Procedure: As an enzyme, the tyrosinase, which was extracted from mushroom and produced by SIGMA was purchased. Tyrosine, a substrate was dissolved into distilled water to a concentration of 0.3 mg/ml and each 1.0 ml of the solution was placed into a test tube. […] Ethanol and water were used to dilute the test compounds. As a control, 0.9 ml of 1:1 mixture of ethanol and water was used. […] The test tube was quickly cooled in an ice water bath to stop the reaction, and the absorbance was measured at 475 nm. […] From the inhibitions(%) of tyrosinase by a series of dilutions of test compounds, IC50, i.e., a concentration of test compound which inhibit the tyrosinase by 50% was calculated for each test compound.

[4] = system: tyrosinase; conditions: background, known activity; cited from earlier work

Row | Molecule | IC50 [1] [µM] | IC50 [3] [µM] | tyrosinase-inhibiting activity (in words) [3] | number of positive subject/the number of total subjects, 48 hours later [2] | number of positive subject/the number of total subjects, 96 hours later [2] | safety to human skin (in words) [2] | tyrosinase inhibition (in words, prior art) [4] | skin response after 96 hours (in words) ([2]; preparation with 0.2 wt % of compound, 96 hours)
1 | O=C(OCc1cc(=O)c(O)co1)c1ccccc1O [Example 2, 2-(2-hydroxybenzoyl)oxymethyl-5-hydroxy-4H-pyran-4-one] | 2230 | 15 |  | 2/30 | 0/30 | safe to the human skin |  | 
2 | O=c1cc(CO)occ1O [Kojic acid] |  |  |  |  |  |  | strongly inhibiting the action of tyrosinase | 
3 | O=C(OCc1cc(=O)c(O)co1)c1cccc(O)c1 [Example 3, 2-(3-hydroxybenzoyl)oxymethyl-5-hydroxy-4H-pyran-4-one] | 2030 | 15 |  | 1/30 | 1/30 | considered to be safe |  | only one(1) among 30 subjects show a weak positive response
4 | Oc1ccc(O)cc1 [Hydroquinone, reference compound] | 25.4 |  |  |  |  |  |  | 

Further lines, with some results ahead:

Row | IC50 [1] [µM] | IC50 [3] [µM] | tyrosinase-inhibiting activity (in words) [3] | Molecule | number of positive subject/the number of total subjects, 48 hours later [2] | number of positive subject/the number of total subjects, 96 hours later [2] | safety to human skin (in words) [2] | tyrosinase inhibition (in words, prior art) [4] | skin response after 96 hours (in words) ([2]; preparation with 0.2 wt % of compound, 96 hours)
5 | 29.2 |  |  | O=C1O[C@H]([C@@H](O)CO)C(O)=C1O [Vitamin C, reference compound] |  |  |  |  | 
6 | 34.8 |  |  | tocopherol [Vitamin E, reference compound] |  |  |  |  | 
7 | 1910 | 10 |  | O=C(OCc1cc(=O)c(O)co1)c1ccc(O)cc1 [Example 1, 2-(4-hydroxybenzoyl)oxymethyl-5-hydroxy-4H-pyran-4-one] | 0/30 | 0/30 | safe to the human skin |  | 
8 | 11.3 | 14 |  | O=C(OCc1cc(=O)c(O)co1)c1cccc(O)c1O [Example 5, 2-(2,3-dihydroxybenzoyl)oxymethyl-5-hydroxy-4H-pyran-4-one] | 1/30 | 0/30 | safe to the human skin |  | 
9 | 15 | 6 | strongest tyrosinase-inhibiting activity | O=C(OCc1cc(=O)c(O)co1)c1ccc(O)cc1O [Example 6, 2-(2,4-dihydroxybenzoyl)oxymethyl-5-hydroxy-4H-pyran-4-one] | 0/30 | 0/30 | safe to the human skin |  | 
10 | 11.5 | 4 | strongest tyrosinase-inhibiting activity | O=C(OCc1cc(=O)c(O)co1)c1ccc(O)c(O)c1 [Example 4, 2-(3,4-dihydroxybenzoyl)oxymethyl-5-hydroxy-4H-pyran-4-one] | 1/30 | 0/30 | safe to the human skin |  | 
